{"source": "patent US20240270762A1", "about": "“PENICILLIN-BINDING PROTEIN INHIBITORS” (priority 2021, published 2024)", "key": {"P. aeruginosa CDC-0095": {"tested_on": "P. aeruginosa CDC-0095", "test": "microbe, parasite or virus in culture", "assay_type": "cell-based", "settings": "Pseudomonas aeruginosa, CDC0095, read-out: Minimum inhibitory concentration, P. aeruginosa CDC-0095"}, "A. baumannii ATCC 19606": {"tested_on": "A. baumannii ATCC 19606", "test": "microbe, parasite or virus in culture", "assay_type": "cell-based", "settings": "Acinetobacter baumannii, ATCC19606, read-out: MIC, A. baumannii ATCC 19606"}, "P. aeruginosa CDC-0110": {"tested_on": "P. aeruginosa CDC-0110", "test": "microbe, parasite or virus in culture", "assay_type": "cell-based", "settings": "Pseudomonas aeruginosa, CDC0110, read-out: Minimum inhibitory concentration, P. aeruginosa CDC-0110"}, "[1]": {"tested_on": "B. thailandensis ATCC 700388", "test": "microbe, parasite or virus in culture", "assay_type": "cell-based", "settings": "Burkholderia thailandensis, ATCC700388, read-out: Minimum inhibitory concentration (MIC), B. thailandensis ATCC 700388"}, "[2]": {"molecular_target": "T1, PBP3 from Acinetobacter baumannii (ATCC 19606) (Acinetobacter baumannii, UniProt A0ABX6CK25)", "T1 sequence (A0ABX6CK25 64-610)": "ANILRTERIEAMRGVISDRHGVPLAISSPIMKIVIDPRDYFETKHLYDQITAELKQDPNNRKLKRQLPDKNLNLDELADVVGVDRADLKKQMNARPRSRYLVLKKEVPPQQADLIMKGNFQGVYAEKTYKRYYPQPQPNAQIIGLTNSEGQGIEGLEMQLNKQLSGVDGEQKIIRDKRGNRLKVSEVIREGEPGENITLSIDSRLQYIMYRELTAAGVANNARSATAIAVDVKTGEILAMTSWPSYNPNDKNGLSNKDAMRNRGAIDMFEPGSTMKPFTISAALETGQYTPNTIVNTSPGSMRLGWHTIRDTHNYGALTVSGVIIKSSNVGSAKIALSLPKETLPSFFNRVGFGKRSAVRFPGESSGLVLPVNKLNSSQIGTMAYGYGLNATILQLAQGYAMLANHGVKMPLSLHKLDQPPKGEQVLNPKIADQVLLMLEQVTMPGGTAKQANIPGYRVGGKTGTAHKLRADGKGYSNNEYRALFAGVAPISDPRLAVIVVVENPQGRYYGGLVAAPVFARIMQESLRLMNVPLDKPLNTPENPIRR", "test": "Bocillin-FL fluorescence polarization competition binding, A. baumannii PBP3", "settings": "fluorescence polarization competition binding assay using Bocillin-FL; read-out: A. baumannii PBP3 Potency", "in_short": "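Purified PBP was preincubated with inhibitor (E. coli PBP3 1.5 μM, 30 min; P. aeruginosa PBP3 0.75 μM, A. baumannii PBP3 0.2 μM and PBP1a 1 μM, 15 min), then Bocillin-FL (0.1 μM; 0.05 μM for PBP1a) added and FP read up to 60 min. EC50 = 50% loss of bound probe.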"}}, "data": [{"smiles": "CS(=O)(=O)N1CCN(C(=O)N[C@@H](C(=O)N[C@H]2Cc3ccc(F)c(C(=O)O)c3OB2O)c2ccc(P(=O)(O)O)c(F)c2)C1=O", "note": "(single isomer, unassigned) [Example 19]", "values": [{"measurement": "MIC", "setting": "P. aeruginosa CDC-0095", "value": "> 128", "unit": "µg/mL"}, {"measurement": "MIC", "setting": "A. baumannii ATCC 19606", "value": "32 to 64", "unit": "µg/mL"}, {"measurement": "MIC", "setting": "P. aeruginosa CDC-0110", "value": "> 128", "unit": "µg/mL"}, {"measurement": "MIC", "setting": "[1]", "value": "32 to 64", "unit": "µg/mL"}, {"measurement": "IC50", "setting": "[2]", "value": "< 10", "unit": "µM"}]}, {"smiles": "O=C(O)c1c(F)ccc2c1OB(O)[C@@H](NC(=O)C(NC(=O)N1CCN(Cc3ccc(O)c(O)c3Cl)C(=O)C1=O)c1ccc(P(=O)(O)O)cc1)C2", "note": "(stereo partly drawn) [Example 8, (3R)-3-(2-(4-(2-chloro-3,4-dihydroxybenzyl)-2,3-dioxopiperazine-1-carboxamido)-2-(4-phosphonophenyl)acetamido)-7-fluoro-2-hydroxy-3,4-dihydro-2H-benzo[e][1,2]oxaborinine-8-carboxylic acid]", "values": [{"measurement": "MIC", "setting": "P. aeruginosa CDC-0095", "value": "< 1", "unit": "µg/mL"}, {"measurement": "MIC", "setting": "A. baumannii ATCC 19606", "value": "< 1", "unit": "µg/mL"}, {"measurement": "MIC", "setting": "P. aeruginosa CDC-0110", "value": "< 1", "unit": "µg/mL"}, {"measurement": "MIC", "setting": "[1]", "value": "< 1", "unit": "µg/mL"}, {"measurement": "IC50", "setting": "[2]", "value": "< 10", "unit": "µM"}]}, {"smiles": "O=C(O)c1c(F)ccc2c1OB(O)[C@@H](NC(=O)C(NC(=O)N1CCN(Cc3ccc(O)c(O)c3Cl)C(=O)C1=O)c1ccc(P(=O)(O)O)c(F)c1)C2", "note": "(stereo partly drawn) [Example 23, (3R)-3-(2-(4-(2-chloro-3,4-dihydroxybenzyl)-2,3-dioxopiperazine-1-carboxamido)-2-(3-fluoro-4-phosphonophenyl)acetamido)-7-fluoro-2-hydroxy-3,4-dihydro-2H-benzo[e][1,2]oxaborinine-8-carboxylic acid]", "values": [{"measurement": "MIC", "setting": "P. aeruginosa CDC-0095", "value": "< 1", "unit": "µg/mL"}, {"measurement": "MIC", "setting": "A. baumannii ATCC 19606", "value": "< 1", "unit": "µg/mL"}, {"measurement": "MIC", "setting": "P. aeruginosa CDC-0110", "value": "< 1", "unit": "µg/mL"}, {"measurement": "MIC", "setting": "[1]", "value": "< 1", "unit": "µg/mL"}, {"measurement": "IC50", "setting": "[2]", "value": "< 10", "unit": "µM"}]}, {"smiles": "O=C(O)c1cccc2c1OB(O)[C@@H](NC(=O)C(NC(=O)N1CCN(Cc3ccc(O)c(O)c3Cl)C(=O)C1=O)c1ccc(P(=O)(O)O)cc1)C2", "note": "(stereo partly drawn) [Example 24, (3R)-3-(2-(4-(2-chloro-3,4-dihydroxybenzyl)-2,3-dioxopiperazine-1-carboxamido)-2-(4-phosphonophenyl)acetamido)-2-hydroxy-3,4-dihydro-2H-benzo[e][1,2]oxaborinine-8-carboxylic acid]", "values": [{"measurement": "MIC", "setting": "P. aeruginosa CDC-0095", "value": "< 1", "unit": "µg/mL"}, {"measurement": "MIC", "setting": "A. baumannii ATCC 19606", "value": "< 1", "unit": "µg/mL"}, {"measurement": "MIC", "setting": "P. aeruginosa CDC-0110", "value": "< 1", "unit": "µg/mL"}, {"measurement": "MIC", "setting": "[1]", "value": "< 1", "unit": "µg/mL"}, {"measurement": "IC50", "setting": "[2]", "value": "< 10", "unit": "µM"}]}, {"smiles": "O=C(O)c1c(F)ccc2c1OB(O)[C@@H](NC(=O)C(NC(=O)N1CCN(Cc3cc(F)c(O)c(O)c3Cl)C(=O)C1=O)c1ccc(P(=O)(O)O)cc1)C2", "note": "(stereo partly drawn) [Example 45, (3R)-3-(2-(4-(2-chloro-5-fluoro-3,4-dihydroxybenzyl)-2,3-dioxopiperazine-1-carboxamido)-2-(4-phosphonophenyl)acetamido)-7-fluoro-2-hydroxy-3,4-dihydro-2H-benzo[e][1,2]oxaborinine-8-carboxylic acid]", "values": [{"measurement": "MIC", "setting": "P. aeruginosa CDC-0095", "value": "< 1", "unit": "µg/mL"}, {"measurement": "MIC", "setting": "A. baumannii ATCC 19606", "value": "< 1", "unit": "µg/mL"}, {"measurement": "MIC", "setting": "P. aeruginosa CDC-0110", "value": "< 1", "unit": "µg/mL"}, {"measurement": "MIC", "setting": "[1]", "value": "< 1", "unit": "µg/mL"}, {"measurement": "IC50", "setting": "[2]", "value": "< 10", "unit": "µM"}]}, {"smiles": "O=C(O)c1c(F)ccc2c1OB(O)[C@@H](NC(=O)C(NC(=O)N1CCN(Cc3ccc(O)c(O)c3Cl)C1=O)c1ccc(P(=O)(O)O)cc1)C2", "note": "(stereo partly drawn) [Example 46, (3R)-3-(2-(3-(2-chloro-3,4-dihydroxybenzyl)-2-oxoimidazolidine-1-carboxamido)-2-(4-phosphonophenyl)acetamido)-7-fluoro-2-hydroxy-3,4-dihydro-2H-benzo[e][1,2]oxaborinine-8-carboxylic acid]", "values": [{"measurement": "MIC", "setting": "P. aeruginosa CDC-0095", "value": "< 1", "unit": "µg/mL"}, {"measurement": "MIC", "setting": "P. aeruginosa CDC-0110", "value": "< 1", "unit": "µg/mL"}, {"measurement": "MIC", "setting": "[1]", "value": "< 1", "unit": "µg/mL"}, {"measurement": "IC50", "setting": "[2]", "value": "< 10", "unit": "µM"}]}, {"smiles": "CS(=O)(=O)N1CCN(C(=O)NC(C(=O)N[C@H]2Cc3cccc(C(=O)O)c3OB2O)c2ccc(P(=O)(O)O)c(F)c2O)C1=O", "note": "(stereo partly drawn) [Example 48, (3R)-3-(2-(3-fluoro-2-hydroxy-4-phosphonophenyl)-2-(3-(methylsulfonyl)-2-oxoimidazolidine-1-carboxamido)acetamido)-2-hydroxy-3,4-dihydro-2H-benzo[e][1,2]oxaborinine-8-carboxylic acid]", "values": [{"measurement": "IC50", "setting": "[2]", "value": "50 to 250", "unit": "µM"}]}, {"smiles": "O=C(N[C@@H](C(=O)N[C@H]1Cc2cccc(C(=O)O)c2OB1O)c1ccc(P(=O)(O)O)cc1)c1ccc(O)c(O)c1Cl", "note": "[Example 49, (R)-3-((R)-2-(2-chloro-3,4-dihydroxybenzamido)-2-(4-phosphonophenyl)acetamido)-2-hydroxy-3,4-dihydro-2H-benzo[e][1,2]oxaborinine-8-carboxylic acid]", "values": [{"measurement": "MIC", "setting": "P. aeruginosa CDC-0095", "value": "< 1", "unit": "µg/mL"}, {"measurement": "MIC", "setting": "A. baumannii ATCC 19606", "value": "< 1", "unit": "µg/mL"}, {"measurement": "MIC", "setting": "P. aeruginosa CDC-0110", "value": "< 1", "unit": "µg/mL"}, {"measurement": "MIC", "setting": "[1]", "value": "2 to 4", "unit": "µg/mL"}, {"measurement": "IC50", "setting": "[2]", "value": "< 10", "unit": "µM"}]}, {"smiles": "O=C(NCCN1CCN(C(=O)NC(C(=O)N[C@H]2Cc3ccc(F)c(C(=O)O)c3OB2O)c2ccc(P(=O)(O)O)cc2)C(=O)C1=O)c1ccc(O)c(O)c1Cl", "note": "(stereo partly drawn) [Example 120, (3R)-3-(2-(4-(2-(2-chloro-3,4-dihydroxybenzamido)ethyl)-2,3-dioxopiperazine-1-carboxamido)-2-(4-phosphonophenyl)acetamido)-7-fluoro-2-hydroxy-3,4-dihydro-2H-benzo[e][1,2]oxaborinine-8-carboxylic acid]", "values": [{"measurement": "MIC", "setting": "P. aeruginosa CDC-0095", "value": "< 1", "unit": "µg/mL"}, {"measurement": "MIC", "setting": "A. baumannii ATCC 19606", "value": "< 1", "unit": "µg/mL"}, {"measurement": "MIC", "setting": "P. aeruginosa CDC-0110", "value": "< 1", "unit": "µg/mL"}, {"measurement": "MIC", "setting": "[1]", "value": "< 1", "unit": "µg/mL"}, {"measurement": "IC50", "setting": "[2]", "value": "< 10", "unit": "µM"}]}]}
